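Dose response: 5 concentrations. Exposure: 48 h. Format: 96-well plates. Endpoint: linear interpolation; highest concentration if not reached. The concentration for 50% growth inhibition is given as GI50. TGI is the concentration that stops growth completely.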
How the values were obtained:
Assay in all cases: growth of human tumour cells (NCI), 48 h
NCI/ADR-RES ovarian = test system: NCI/ADR-RES ovarian
786-0 renal = test system: 786-0 renal
HCT-116 colon = test system: HCT-116 colon
UACC-62 melanoma = test system: UACC-62 melanoma
SK-MEL-5 melanoma = test system: SK-MEL-5 melanoma
NCI-H460 lung = test system: NCI-H460 lung
SF-295 CNS = test system: SF-295 CNS
MDA-MB-435 = test system: MDA-MB-435
COLO 205 colon = test system: COLO 205 colon
LOX IMVI melanoma = test system: LOX IMVI melanoma
NCI-H23 lung = test system: NCI-H23 lung
HS 578T breast = test system: HS 578T breast
CCRF-CEM leukemia = test system: CCRF-CEM leukemia
SN12C renal = test system: SN12C renal
SR leukemia = test system: SR leukemia
BT-549 breast = test system: BT-549 breast
CAKI-1 renal = test system: CAKI-1 renal
HL-60(TB) leukemia = test system: HL-60(TB) leukemia
MDA-MB-231 breast = test system: MDA-MB-231 breast
RPMI-8226 leukemia = test system: RPMI-8226 leukemia
MOLT-4 leukemia = test system: MOLT-4 leukemia
OVCAR-8 ovarian = test system: OVCAR-8 ovarian
SK-OV-3 ovarian = test system: SK-OV-3 ovarian
SF-268 CNS = test system: SF-268 CNS
NCI-H226 lung = test system: NCI-H226 lung
A498 renal = test system: A498 renal
PC-3 prostate = test system: PC-3 prostate
SNB-75 CNS = test system: SNB-75 CNS
HCC-2998 colon = test system: HCC-2998 colon
OVCAR-4 ovarian = test system: OVCAR-4 ovarian
MALME-3M melanoma = test system: MALME-3M melanoma
OVCAR-5 ovarian = test system: OVCAR-5 ovarian
EKVX NSCLC = test system: EKVX NSCLC
U251 CNS = test system: U251 CNS
ACHN renal = test system: ACHN renal
TK-10 renal = test system: TK-10 renal
DU-145 prostate = test system: DU-145 prostate
SW-620 colon = test system: SW-620 colon
SNB-19 CNS = test system: SNB-19 CNS
HOP-62 NSCLC = test system: HOP-62 NSCLC
HT29 colon = test system: HT29 colon
A549 NSCLC = test system: A549 NSCLC
OVCAR-3 ovarian = test system: OVCAR-3 ovarian
RXF 393 renal = test system: RXF 393 renal
KM12 colon = test system: KM12 colon
SK-MEL-28 melanoma = test system: SK-MEL-28 melanoma
IGROV1 ovarian = test system: IGROV1 ovarian
M14 melanoma = test system: M14 melanoma
UACC-257 melanoma = test system: UACC-257 melanoma
T-47D breast = test system: T-47D breast
HCT-15 colon = test system: HCT-15 colon
SF-539 CNS = test system: SF-539 CNS
MCF7 breast = test system: MCF7 breast
UO-31 renal = test system: UO-31 renal

Oc1c(Br)cc(Br)c2cccnc12
GI50 (NCI/ADR-RES ovarian): 2.82 µM | TGI (NCI/ADR-RES ovarian): > 100 µM | GI50 (786-0 renal): 2.52 µM | TGI (786-0 renal): 5.91 µM | GI50 (HCT-116 colon): 3.22 µM | TGI (HCT-116 colon): 10.6 µM | GI50 (UACC-62 melanoma): 2.16 µM | TGI (UACC-62 melanoma): 7.37 µM | GI50 (SK-MEL-5 melanoma): 2.09 µM | TGI (SK-MEL-5 melanoma): 5.19 µM | GI50 (NCI-H460 lung): 2.94 µM | TGI (NCI-H460 lung): 10.7 µM | GI50 (SF-295 CNS): 2.26 µM | TGI (SF-295 CNS): 6.53 µM | GI50 (MDA-MB-435): 3.62 µM | TGI (MDA-MB-435): > 100 µM | GI50 (COLO 205 colon): 3.79 µM | TGI (COLO 205 colon): 25 µM | GI50 (LOX IMVI melanoma): 2.94 µM | TGI (LOX IMVI melanoma): 14.1 µM | GI50 (NCI-H23 lung): 3.56 µM | TGI (NCI-H23 lung): 23.6 µM | GI50 (HS 578T breast): 5.73 µM | TGI (HS 578T breast): > 100 µM | GI50 (CCRF-CEM leukemia): 2.63 µM | TGI (CCRF-CEM leukemia): 8.83 µM | GI50 (SN12C renal): 3.23 µM | TGI (SN12C renal): 35.2 µM | GI50 (SR leukemia): 3.07 µM | TGI (SR leukemia): 13.7 µM | GI50 (BT-549 breast): 4 µM | TGI (BT-549 breast): > 100 µM | GI50 (CAKI-1 renal): 2.29 µM | TGI (CAKI-1 renal): 6.79 µM | GI50 (HL-60(TB) leukemia): 2.28 µM | TGI (HL-60(TB) leukemia): 5.13 µM | GI50 (MDA-MB-231 breast): 4.43 µM | TGI (MDA-MB-231 breast): 28.9 µM | GI50 (RPMI-8226 leukemia): 3.45 µM | TGI (RPMI-8226 leukemia): 24.8 µM | GI50 (MOLT-4 leukemia): 3 µM | TGI (MOLT-4 leukemia): 8.49 µM | GI50 (OVCAR-8 ovarian): 3.75 µM | TGI (OVCAR-8 ovarian): > 100 µM | GI50 (SK-OV-3 ovarian): 3.99 µM | TGI (SK-OV-3 ovarian): 21.1 µM | GI50 (SF-268 CNS): 3.36 µM | TGI (SF-268 CNS): > 100 µM | GI50 (NCI-H226 lung): 5.09 µM | TGI (NCI-H226 lung): 30.2 µM | GI50 (A498 renal): 2.03 µM | TGI (A498 renal): 11.5 µM | GI50 (PC-3 prostate): 4.5 µM | TGI (PC-3 prostate): > 100 µM | GI50 (SNB-75 CNS): 10.7 µM | TGI (SNB-75 CNS): > 100 µM | GI50 (HCC-2998 colon): 3.61 µM | TGI (HCC-2998 colon): 18.8 µM | GI50 (OVCAR-4 ovarian): 4.09 µM | TGI (OVCAR-4 ovarian): 97 µM | GI50 (MALME-3M melanoma): 3.21 µM | TGI (MALME-3M melanoma): 19 µM | GI50 (OVCAR-5 ovarian): 6.21 µM | TGI (OVCAR-5 ovarian): 49.5 µM | GI50 (EKVX NSCLC): 3.45 µM | TGI (EKVX NSCLC): 19.1 µM | GI50 (U251 CNS): 3.34 µM | TGI (U251 CNS): 18.8 µM | GI50 (ACHN renal): 3.48 µM | TGI (ACHN renal): 18.6 µM | GI50 (TK-10 renal): 14.2 µM | TGI (TK-10 renal): > 100 µM | GI50 (DU-145 prostate): 3.72 µM | TGI (DU-145 prostate): 40.3 µM | GI50 (SW-620 colon): 4.58 µM | TGI (SW-620 colon): 72.8 µM | GI50 (SNB-19 CNS): 3.99 µM | TGI (SNB-19 CNS): > 100 µM | GI50 (HOP-62 NSCLC): 3.57 µM | TGI (HOP-62 NSCLC): 30.8 µM | GI50 (HT29 colon): 6.55 µM | TGI (HT29 colon): 26.1 µM | GI50 (A549 NSCLC): 3.62 µM | TGI (A549 NSCLC): 54.6 µM | GI50 (OVCAR-3 ovarian): 3.53 µM | TGI (OVCAR-3 ovarian): 15.2 µM | GI50 (RXF 393 renal): 4.13 µM | TGI (RXF 393 renal): 23.3 µM | GI50 (KM12 colon): 4.17 µM | TGI (KM12 colon): 23.4 µM | GI50 (SK-MEL-28 melanoma): 4.79 µM | TGI (SK-MEL-28 melanoma): > 100 µM | GI50 (IGROV1 ovarian): 4.18 µM | TGI (IGROV1 ovarian): 51.4 µM | GI50 (M14 melanoma): 2.14 µM | TGI (M14 melanoma): 5.11 µM | GI50 (UACC-257 melanoma): 2.22 µM | TGI (UACC-257 melanoma): 6 µM | GI50 (T-47D breast): 3.03 µM | TGI (T-47D breast): 18.4 µM | GI50 (HCT-15 colon): 4.84 µM | TGI (HCT-15 colon): 31.1 µM | GI50 (SF-539 CNS): 3.17 µM | TGI (SF-539 CNS): 7.63 µM | GI50 (MCF7 breast): 4.48 µM | TGI (MCF7 breast): > 100 µM | GI50 (UO-31 renal): 2.56 µM | TGI (UO-31 renal): 16.5 µM

Reference: PubChem BioAssay (NCI)
